What was measured:
human αvβ3 integrin = target: T1, human αvβ3 integrin (Homo sapiens, UniProt P05106+P06756); assay: αvβ3-vitronectin binding assay (solid phase)
T1 construct: Human vitronectin receptor (αvβ3) was purified from human placenta; from tissue; host or cells: human placenta
Procedure: (§1) A solid phase assay for the study of αvβ3-vitronectin binding was set up on the basis of already published methods (WONG et al., Molecular Pharmacology 50: 529–537, 1996; Brooks et al., Cell 85: 683–693, 1996). The human αvβ3 integrin was diluted into coating buffer (CB) containing 150 mM NaCl, 1 mM CaCl2, 1 mM MgCl2, 1 mM MnCl2, 20 mM TRIS, pH 7.4 at a concentration of 1.5 μg/ml. Into 96-well plates, 50 μl of the diluted integrin were added and allowed to bind to the plate walls overnight at 4° C. Next day, the assay plates were emptied and 100 μl of blocking buffer (CB buffer with 3% BSA) were added to each well for 45 min at 37° C. […] Then, the plates were washed as described and 50 μl of ready to use Turbo-TMB substrate for peroxydase were added to each well. After 30 minutes incubation at room temperature, the color development was stopped with 50 μl sulphuric acid 0.38 M and the plates were read at a wavelength of 450 nm with a Packard plate reader. The values obtained were analyzed by four parameters curve fit in the computer program GraphPad Prism, after normalization by a maximum binding control (Bmax) detected in wells where no competitor was added, and a minimum binding control (NSB) detected in wells where no integrin was coated. […]

αIIbβ3 integrin = target: T2, αIIbβ3 integrin (Homo sapiens, UniProt P05106+P08514); assay: αIIbβ3-fibrinogen binding assay (solid phase); details: inhibition of biotinylated fibrinogen (10 nM) binding to coated integrin; read-out: αIIbβ3 (IC50 μmol)
T2 construct: Human fibrinogen receptor (αIIbβ3) was purified from human platelets; from tissue; host or cells: human platelets
T2 sequence (P08514 32-887 limits assumed): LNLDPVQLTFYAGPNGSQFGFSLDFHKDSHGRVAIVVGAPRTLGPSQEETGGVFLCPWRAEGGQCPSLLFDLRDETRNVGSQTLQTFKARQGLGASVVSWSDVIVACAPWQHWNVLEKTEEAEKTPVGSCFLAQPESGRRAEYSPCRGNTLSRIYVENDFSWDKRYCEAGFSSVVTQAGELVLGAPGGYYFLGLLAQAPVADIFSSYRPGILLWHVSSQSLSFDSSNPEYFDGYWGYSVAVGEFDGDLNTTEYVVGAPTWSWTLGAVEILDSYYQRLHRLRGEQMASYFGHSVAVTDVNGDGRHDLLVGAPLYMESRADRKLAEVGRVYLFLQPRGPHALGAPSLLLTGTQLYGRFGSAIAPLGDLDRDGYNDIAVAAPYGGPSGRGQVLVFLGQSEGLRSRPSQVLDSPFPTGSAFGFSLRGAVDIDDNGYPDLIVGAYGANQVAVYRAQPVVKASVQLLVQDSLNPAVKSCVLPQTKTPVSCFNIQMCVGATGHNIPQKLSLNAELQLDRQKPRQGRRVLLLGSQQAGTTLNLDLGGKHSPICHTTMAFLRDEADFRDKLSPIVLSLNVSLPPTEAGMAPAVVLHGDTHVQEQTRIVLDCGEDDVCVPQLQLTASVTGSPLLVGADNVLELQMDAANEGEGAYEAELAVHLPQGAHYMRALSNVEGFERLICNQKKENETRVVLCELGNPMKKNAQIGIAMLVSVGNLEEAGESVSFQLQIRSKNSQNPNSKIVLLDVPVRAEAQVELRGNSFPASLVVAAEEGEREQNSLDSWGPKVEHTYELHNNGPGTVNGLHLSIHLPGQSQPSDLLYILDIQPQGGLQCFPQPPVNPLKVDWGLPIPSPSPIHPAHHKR
T2 sequence (P08514 891-1039 partner limits assumed): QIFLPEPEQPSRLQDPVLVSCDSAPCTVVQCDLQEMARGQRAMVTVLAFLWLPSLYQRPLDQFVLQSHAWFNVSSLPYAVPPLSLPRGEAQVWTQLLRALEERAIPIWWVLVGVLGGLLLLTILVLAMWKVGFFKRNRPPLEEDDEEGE
T2 sequence (P05106 27-788): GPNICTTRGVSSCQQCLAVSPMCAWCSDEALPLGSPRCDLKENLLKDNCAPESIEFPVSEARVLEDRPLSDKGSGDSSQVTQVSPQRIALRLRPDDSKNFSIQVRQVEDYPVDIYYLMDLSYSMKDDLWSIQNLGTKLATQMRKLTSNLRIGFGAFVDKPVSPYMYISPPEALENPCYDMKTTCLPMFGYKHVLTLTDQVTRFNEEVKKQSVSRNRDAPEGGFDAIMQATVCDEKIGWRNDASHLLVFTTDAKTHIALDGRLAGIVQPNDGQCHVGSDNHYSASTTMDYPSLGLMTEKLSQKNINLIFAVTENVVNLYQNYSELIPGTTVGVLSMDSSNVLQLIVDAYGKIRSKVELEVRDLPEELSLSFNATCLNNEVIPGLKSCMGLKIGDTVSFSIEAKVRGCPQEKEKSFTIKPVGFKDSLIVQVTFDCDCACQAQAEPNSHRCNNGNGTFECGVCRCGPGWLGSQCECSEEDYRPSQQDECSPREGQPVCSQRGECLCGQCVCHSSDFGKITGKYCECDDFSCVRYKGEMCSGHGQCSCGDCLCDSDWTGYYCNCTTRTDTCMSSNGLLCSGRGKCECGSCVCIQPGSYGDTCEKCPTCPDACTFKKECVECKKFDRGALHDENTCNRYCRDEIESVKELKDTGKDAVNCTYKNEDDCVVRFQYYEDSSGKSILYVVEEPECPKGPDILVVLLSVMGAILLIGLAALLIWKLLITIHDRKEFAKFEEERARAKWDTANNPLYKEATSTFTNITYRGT
Procedure: as §1, with “of αIIbβ3-fibrinogen” for “of αvβ3-vitronectin”, “up according to” for “up on”, “the method described for αvβ3. αIIbβ3” for “the basis of already published methods (WONG et al., Molecular Pharmacology 50: 529–537, 1996; Brooks et al., Cell 85: 683–693, 1996). The human αvβ3”, “mM Cacl2,” for “mM CaCl2,”, “of 3” for “of 1.5”, “fit with” for “fit in”

T1 sequence (P06756 31-889 limits assumed): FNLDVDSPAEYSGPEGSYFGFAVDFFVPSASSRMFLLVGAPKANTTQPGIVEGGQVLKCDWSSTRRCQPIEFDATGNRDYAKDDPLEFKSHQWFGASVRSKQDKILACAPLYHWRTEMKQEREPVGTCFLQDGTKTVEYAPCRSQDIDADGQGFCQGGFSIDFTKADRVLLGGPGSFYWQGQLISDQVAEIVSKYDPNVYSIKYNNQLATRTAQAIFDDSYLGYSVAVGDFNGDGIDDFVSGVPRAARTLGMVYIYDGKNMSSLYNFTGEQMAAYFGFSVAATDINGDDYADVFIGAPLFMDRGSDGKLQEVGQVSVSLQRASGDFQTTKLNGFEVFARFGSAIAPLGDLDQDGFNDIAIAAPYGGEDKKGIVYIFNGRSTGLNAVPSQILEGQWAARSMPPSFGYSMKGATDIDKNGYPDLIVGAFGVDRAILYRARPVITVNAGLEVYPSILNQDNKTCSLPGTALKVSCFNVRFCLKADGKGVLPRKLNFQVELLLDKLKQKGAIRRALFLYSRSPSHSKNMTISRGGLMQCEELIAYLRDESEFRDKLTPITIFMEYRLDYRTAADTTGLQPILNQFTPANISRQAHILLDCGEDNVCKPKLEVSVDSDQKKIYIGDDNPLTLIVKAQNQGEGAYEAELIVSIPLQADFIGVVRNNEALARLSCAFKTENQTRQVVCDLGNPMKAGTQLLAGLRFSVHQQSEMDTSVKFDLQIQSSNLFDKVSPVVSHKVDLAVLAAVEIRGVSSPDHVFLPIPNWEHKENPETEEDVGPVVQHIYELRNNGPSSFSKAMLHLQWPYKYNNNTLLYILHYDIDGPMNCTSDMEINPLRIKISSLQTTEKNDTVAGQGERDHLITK
T1 sequence (P06756 891-1048 partner limits assumed): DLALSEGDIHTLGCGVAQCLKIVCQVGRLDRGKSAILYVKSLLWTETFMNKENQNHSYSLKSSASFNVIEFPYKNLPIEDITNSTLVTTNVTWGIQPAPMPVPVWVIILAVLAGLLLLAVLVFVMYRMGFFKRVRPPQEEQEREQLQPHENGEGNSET
T1 sequence (P05106 27-788): as the sequence (P05106 27-788) above

`O=C(O)CC(Nc1ccc2c(c1)OCC(=O)N2CCCNc1ccccn1)c1ccccc1` (stereo not drawn) [3-{4-[3-(N-(2-pyridinyl)amino)propyl]-3-oxo-3,4-dihydro-2H-1,4-benzoxazin-7-yl)amino}-3-phenylpropanoic acid] was tested, and the IC50 (human αvβ3 integrin; inhibition of biotinylated vitronectin (5 nM) binding to coated integrin, read-out: αvβ3 (IC50 μmol)) was 0.011 ± 0.004 µM, the “ratio between αIIbβ3 and αvβ3 inhibiting activity” value (human αvβ3 integrin; selectivity, αIIbβ3 IC50 / αvβ3 IC50) was “about 1,000” and the IC50 (αIIbβ3 integrin) was 18 µM.

Source: US7101876B2, “Substituted benzoxazines as integrin antagonists” (Pharmacia Corporation, priority 2001, dated 2006)
